# Measured values from patent publication US11834698B2, “Process for determining enzyme activity in a cell by activity-based reporter gene technology (ABRGT)” (INDIAN INSTITUTE OF SCIENCE EDUCATION AND RESEARCH, priority 2018, dated 2023).
# Peptide text beside a SMILES is read from it. * marks the point of attachment. Cbz = O=C(OCc1ccccc1)*; CH2F = FC*
# Target: T1, caspase-7 GFPspark (Homo sapiens, UniProt P55210)
# T1 construct: host or cells: MCF-7, HEK-293
# T1 sequence (P55210 24-198 limits assumed): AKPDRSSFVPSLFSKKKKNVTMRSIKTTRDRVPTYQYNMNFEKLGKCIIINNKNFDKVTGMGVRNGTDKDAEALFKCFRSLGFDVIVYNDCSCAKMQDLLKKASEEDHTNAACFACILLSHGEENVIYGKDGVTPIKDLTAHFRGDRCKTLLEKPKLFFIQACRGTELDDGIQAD
# T1 sequence (P55210 207-303 limits assumed): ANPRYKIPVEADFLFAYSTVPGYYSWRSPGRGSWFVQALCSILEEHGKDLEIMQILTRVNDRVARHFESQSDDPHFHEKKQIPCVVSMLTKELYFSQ
# Assay: AbRGT FRET imaging / acceptor photobleaching, caspase-7 GFPspark in HEK-293 cells
# Format: cell-based
# Procedure: FIGS. 14A and 14B depict specific detection of caspase-7 GFPspark in HEK-293 cells. Caspase-7 GFPspark (1 μg) transfected HEK-293 cells were treated with STS (1 μM) for 10 h and labelled with the probe 1 (1 μM) for 2 h. […] The acceptor photobleaching experiment was performed to confirm the FRET signal as described previously. Bar graph representing a rise in GFP intensity in ROI after rhodamine photobleaching was 87 a.u. as compared to the unbleached background, i.e., 13 a.u. FRET efficiency was calculated to be 33±2%.
# Plasmids and transient transfection: GFPspark tagged plasmids; caspase-3 GFPspark tag (Cat: HG10050-ACG), caspase-7 GFPspark tag (HG10049-ACG), caspase-8 GFPspark (HG10078-ACG), caspase-9 GFPspark (HG11151-ACG) and cathepsin B GFPspark (HG10483-ACG) were procured from Sino Biological. For transfection, cells were seeded in a 6-well plate at a density of 0.4 million cells/well. […] 24 h post-transfection, cells were visualized under the GFP filter for GFPspark expression under fluorescence microscope at 10× magnification.
# Labelling of active caspases in apoptotic cells with FABP: After 24 h of transfection, cells were treated with STS (1 μM) drug or TRAIL (1 μg/ml) for apoptotic induction and incubated for 2, 4, 6 and 8 h at 37° C. in a humidified atmosphere of 5% CO2/95% air. […] Slides were then imaged for GFP, FRET and rhodamine fluorescence signals under confocal microscopy. […]
# Fluorescence imaging studies, FRET procedure: Images were collected on Zeiss LSM710 confocal microscope with 25 mW argon laser using Zen10 software. […] Images were collected in the three channels; GFP channel, argon laser tuned at 488 nm with 2% laser intensity and fluorescence emission was collected in emission range of 490-550 nm; rhodamine channel, argon laser tuned to 561 nm laser with 2% laser intensity and fluorescence emission was collected in range 550-650 nm and FRET channel with excitation laser of GFPSPARK channel and emission range of rhodamine channel. […]
# [1] = HEK-293, STS 1 μM 10 h, probe 1 μM 2 h
"effect of inhibitor on FRET signal (HEK-293, inhibitor 50 μM pre-treatment, STS 10 h)",Molecule,calculated FRET efficiency [1] [%],rise in GFP intensity in ROI after rhodamine photobleaching [1] [a.u.]
abolished,COC(=O)C[C@H](NC(=O)[C@H](C)NC(=O)[C@@H](NC(=O)OCc1ccccc1)C(C)C)C(=O)CF [Z-VAD-FMK] (Cbz-Val-Ala-Asp(OMe)-CH2F),,
,Rhodamine-VAD-fluoromethyl ketone [probe 1],33±2,87
